This is an account of results in article PMC12444508, “Mechanistic Insights into the Anticancer Action of Novel 2‑Hydroxy-1,4-naphthoquinone Thiol Derivatives” (ACS Omega, 2025).

One series deals with SCC-9 cells. The experiment in a line: Reactive oxygen species production (ROS-Glo H2O2). Format: cell-based, human. The conditions noted are these: 2 × IC50, 24, 48 and 72 h, menadione positive control. As to the method: The assay was performed in SCC-9 cells as previously described. […] Menadione (M9529, Sigma-Aldrich Corporation, San Luis, Mo., USA), at a concentration of 20 μM, served as a positive control, while DMSO, at equivalent concentrations to the test substances, served as the negative control. Cells were then incubated at 37 °C with 5% CO2 for the indicated time, and ROS was measured by ROS-Glo H2O2 Assay G8820 (Promega Corporation, Madison, WI 53711 USA) as indicated by the vendor. The luminescence signal was measured using a luminescence detector, Luminometer TD-20/20 (Turner Designs Instrument, Sunnyvale, CA, USA).

The next series concerns HepG2 (liver cancer). As to the kind of experiment: MTT cytotoxicity/selectivity, HepG2. The series is classed as cell-based. The conditions noted are these: vs normal oral fibroblasts. Here is the method:
(§1) Human SCC-4, SCC-9, and SCC-25 cells, derived from a human oral tongue SCC (squamous cell carcinoma), were obtained from ATCC (CRL-1624, CRL-1629, and CRL-1628, respectively) and maintained in 1:1 DMEM/F12 (Dulbecco’s modified Eagle’s medium and Ham’s F12 medium; Gibco (Thermo Fisher, Waltham, MA, USA)) supplemented with 10% (v/v) FBS (fetal bovine serum; Invitrogen, Thermo Fisher, Waltham, MA, USA) and 400 ng/mL hydrocortisone (Sigma-Aldrich Corporation, St. Louis, MO, USA). B16-F10 (melanoma; CRL-6475), HCT-116 (colorectal cancer; CCL-247), and HepG2 (liver cancer; HB-8065), in addition to primary normal human gingival fibroblasts obtained from ATCC (PCS-201-018), were maintained in DMEM supplemented with 10% (v/v) of FBS and were used in a maximum of six passages. Cells were grown in a humidified environment containing 5% CO2 at 37 °C. For all biological assays, compounds and shikonin were solubilized in 100% DMSO (all Sigma-Aldrich Corp.) to a final concentration of 10 mM and lapachol in ethanol. The carboplatin control was prepared in water (Fauldcarbo; Libbs Farmacêutica, São Paulo, SP, Brazil) and was used as a standard anticancer compound.
The viability of OSCC cell lines and primary human fibroblast cells was assessed using the MTT assay as in ref . Briefly, cells were grown in triplicate in 96-well plates (5 × 10^3 cells/well) until confluence. Then, the medium was removed, fresh medium was added, and the cells were returned to the incubator in the presence of different compounds. […] Then, the wells containing the cells were washed with PBS heated to 37 °C, the formazan crystals were dissolved in a solvent solution (DMSO/methanol 1:1 v/v), and the absorbance was read at 560 nm using an EPOCH microplate spectrophotometer (BioTek Instruments, Winooski, VT, USA) with the background absorbance at 670 nm subtracted. […]
Data are presented as means ± SD. […] The selectivity index was calculated as SI = IC50 of the compound in normal oral fibroblast cells/IC50 of the same compound for each oral cancer cell line (SCC-4, SCC-9, and SCC-25) and averaged when indicated.

For series [1], the system named is OSCC cell lines (SCC-4, SCC-9, and SCC-25). As to the kind of experiment: Average selectivity index over three OSCC cell lines (MTT). The conditions noted are these: average of SI for SCC-4, SCC-9 and SCC-25 vs normal oral fibroblasts. Format: cell-based, human. As to the method:
as §1
(§2) The viability of OSCC cell lines and primary human fibroblast cells was assessed using the MTT assay as in ref . Briefly, cells were grown in triplicate in 96-well plates (5 × 10^3 cells/well) until confluence. Then, the medium was removed, fresh medium was added, and the cells were returned to the incubator in the presence of different compounds. DMSO at the same concentration was used as a control for 100% cell viability. After 72 h, cells were incubated with 0.5 mg/mL of MTT reagent (3-(4,5-dimethyl-2-thiazolyl)-2,5-diphenyl-2-H-tetrazolium bromide) (Sigma-Aldrich Corporation, Louis, MO, USA) for 3.5 h. Then, the wells containing the cells were washed with PBS heated to 37 °C, the formazan crystals were dissolved in a solvent solution (DMSO/methanol 1:1 v/v), and the absorbance was read at 560 nm using an EPOCH microplate spectrophotometer (BioTek Instruments, Winooski, VT, USA) with the background absorbance at 670 nm subtracted. Control chemotherapeutics (carboplatin and shikonin) were used.
(§3) Data are presented as means ± SD. IC50 values for the MTT assays were obtained by nonlinear regression using the […] 8.4.3.0 program (Intuitive Software for Science, San Diego, CA, USA) from at least three independent experiments. A dose–response curve (inhibitor) vs response using the least-squares method was used to determine the IC50, SD, and R2 of the data. The selectivity index was calculated as SI = IC50 of the compound in normal oral fibroblast cells/IC50 of the same compound for each oral cancer cell line (SCC-4, SCC-9, and SCC-25) and averaged when indicated.

A short description of a further series: Hemolysis assay. The series is classed as cell-based, human. The conditions noted are these: human, human erythrocytes, Triton X-100 positive control, read-out: % Hemolysis (Mean ± SD). As to the method:
To determine the surfactant power of the substances present in biological membranes, a hemolysis test was carried out with human blood approved by the Research Ethics Committee of the Universidade Federal Fluminense (CAAE: 43134721.4.0000.5626). Erythrocytes were collected for centrifugation at 1500 rpm for 15 min, washed with PBS (phosphate-buffered saline) supplemented with 10 mM glucose, and counted in an automatic cell counter (Thermo Fisher, Waltham, MA, USA). […] In total, 10 μL of PBS was used as a negative control, and 10 μL of PBS with 0.1% Triton x 100 was used as a positive control. Data reading was performed with EPOCH (BioTek Instruments, Winooski, VT, USA) at an absorbance of 540 nm, and statistical data were generated using […] Prism 8.4.3.0 program (Intuitive Software for Science, San Diego, CA, USA).

The test system of a further series is SCC-9 cells (OSCC cells). The experiment in a line: MTT cell viability assay, SCC-9. The series is classed as cell-based, human. The conditions noted are these: for IC50: Homo sapiens, SCC-9, 72 h, MTT, read-out: IC50 SCC-9 oral cancer; for SI (SCC-9): IC50 normal oral fibroblast / IC50 SCC-9. As to the method: as §1, §2, §3
Another series relates to C57BL/6 mice. The experiment in a line: In vivo acute toxicity study. As to conditions: single intraperitoneal dose 100, 200 and 400 mg/kg, 14 days. Here is the method:
. All experiments were carried out in accordance with Brazilian guidelines and regulations. Dosing and analysis were performed in accordance with 423 OECD guidelines and reviewed by. Each group of animals had n = 3 and received only one intraperitoneal injection (Day 0) of compounds 7a and 7e dissolved in […] of PBS and 3% DMSO. Animals in the control group received only 3% DMSO in PBS. The first dose of the compound was 100 mg/kg. Subsequent dose levels (200 mg/kg and 400 mg/kg) were determined based on the result obtained from the previous dose. Animals were examined daily, twice a day, for mortality and morbidity for 14 days, when all animals were anesthetized (ketamine 100 mg/kg and xylazine 10 mg/kg) followed by cervical dislocation. Macroscopic necropsy of the main organs was performed. The animals’ body weight and average food consumption were measured every 7 days. As an indicator of morbidity, the following signs were evaluated: tremors, seizure, salivation, diarrhea, and lethargy, along with the signs of pain, increased back arching, and mobility disability. The necropsy included examination of the external characteristics of the carcass; external orifices of the body; the abdominal, thoracic, and cranial cavities; and organs/tissues of the liver, thymus, right kidney, right testicle, heart, and lung.

As a reminder, the IC50 is the concentration at which inhibition is half-maximal. Turning to `CC1(C)OC2=C(C(=O)c3ccccc3C2=O)C(Sc2ccccc2)C1Sc1ccccc1` (stereo not drawn) [7a, 2,2-Dimethyl-3,4-bis(phenylthio)-3,4-dihydro-2H-benzo[g]chromene-5,10-dione], in the series on SCC-9 cells, the ROS production entry is listed as “induced the generation of ROS”. Moreover, the “selective index (SI) HepG2 hepatocellular carcinoma” value in the series with HepG2 (liver cancer) was found to be 2.1. The “average SI” value in series [1] turned out to be 3.2. In addition, the hemolysis at 500 µM in the series “Hemolysis assay” was less than 2%. In addition, in the series on SCC-9 cells (OSCC cells), the IC50 is 26.3 µM and the “SI (SCC-9)” value was 2.2. In the series on C57BL/6 mice, the “abdominal cavity and macroscopic organs at necropsy” value is listed as “no morphological changes or lesions”; the “body weight and food consumption vs control animals” value is reported as “no significant difference”.
`COc1ccc(SC2C3=C(OC(C)(C)C2Sc2ccc(OC)cc2)C(=O)c2ccccc2C3=O)cc1` (stereo not drawn) [7e, 3,4-Bis((4-methoxyphenyl)thio)-2,2-dimethyl-3,4-dihydro-2H-benzo[g]chromene-5,10-dione]: in the series with SCC-9 cells, the ROS production result is listed as “induced the generation of ROS”. For the same compound, the “selective index (SI) HepG2 hepatocellular carcinoma” value in the series with HepG2 (liver cancer) was 3.4. In addition, the hemolysis at 500 µM in the series “Hemolysis assay” is less than 2%. Also, in the series on SCC-9 cells (OSCC cells), the IC50 is 46.5 µM and the “SI (SCC-9)” value is recorded as 2.4. Besides, in the series with C57BL/6 mice, the “abdominal cavity and macroscopic organs at necropsy” value was “no morphological changes or lesions”; the “body weight and food consumption vs control animals” value was “no significant difference”.
